{"source": "patent US7863297B2", "about": "“Methods of using 4-(amino)-2-(2,6-dioxo(3-piperidly))-isoindoline-3-dione for the treatment of myelodysplastic syndromes” (Celgene Corporation, priority 2002, dated 2011)", "key": {"MDS patients [1]": {"test_system": "MDS patients", "assay": "Clinical study in MDS patients with RBC transfusion-dependence or symptomatic anemia"}, "[2]": {"test_system": "bone marrow progenitor formation", "assay": "MDS vs normal bone marrow progenitor formation in pre-clinical models", "type": "cell-based"}, "MDS patients [3]": {"test_system": "MDS patients", "assay": "Expanded clinical study with additional 16 MDS patients", "type": "in vivo, human", "source_text": "The clinical study was expanded with additional 16 MDS patients for at least eight weeks. According to the IPSS, 13 of these patients were categorized as low- or intermediate-1-risk patients and three patients were grouped as intermediate-2- or high-risk patients. According to the FAB classification, there were 11 patients with refractory anemia (RA) or RA with ringed sideroblasts (RARS), and five patients with RA with excess blasts (RAEB), RAEB in transformation (RAEB-T). […] Among these 16 patients who completed at least 8 weeks of monitoring, nine patients achieved an erythroid response as assessed by the International MDS Working Group Criteria. The erythroid responses consisted of transfusion independence in seven previously transfusion-dependent patients, a >2 g/dL rise in blood hemoglobin concentration in one patient in with transfusion-independent anemia, and a >50% decrease in RBC transfusion requirement in one transfusion-dependent patient. […] In addition, complete cytogenetic responses developed in five in eight patients with abnormal karyotypes at baseline. These five patients with complete cytogenetic responses all had the Del5q31-33 abnormality, which has been discovered to be a good prognostic factor for MDS. Indeed, all five patients who enrolled in this study with 5q-syndrome achieved a complete cytogenetic response and a major erythroid response."}, "AML cells": {"test_system": "AML cells", "assay": "Mitogenic response to VEGF in AML cells", "type": "cell-based", "conditions": "by extinguishing ligand-induced Akt-phosphorylation"}, "TNF-α production [4]": {"test_system": "TNF-α production", "conditions": "LPS-stimulated human whole blood, cited from earlier work"}, "[5]": {"test_system": "production of various cytokines", "assay": "In vitro studies of effects on production of various cytokines, potency compared with thalidomide", "type": "cell-based", "conditions": "in vitro cytokine production studies", "source_text": "The results of these studies are described below."}, "TNF-α production [6]": {"test_system": "TNF-α production", "conditions": "LPS-stimulated PBMC, cited from earlier work; for IC50: read-out: IC50 for inhibiting production of TNF-α"}, "MDS patients [7]": {"test_system": "MDS patients", "conditions": "MDS patients treated with recombinant human EPO; cited from earlier work"}, "[8]": {"conditions": "25 mg daily, initial ten patients"}, "[9]": {"conditions": "hematologic responses, nine evaluable"}}, "note": "Like-named read-outs stand apart in the source and are kept apart here.", "data": [{"compound": "Nc1cccc2c1CN(C1CCC(=O)NC1=O)C2=O", "note": "(stereo not shown)", "values": [{"measurement": "tolerability", "setting": "MDS patients [1]; 10 mg continuous oral daily dose", "result": "well-tolerated with minimal myelosuppression"}, {"measurement": "grade 3 fatigue necessitating dose reduction", "setting": "MDS patients [1]; [8]", "result": 1, "unit": "patient"}, {"measurement": "myelosuppression (higher than grade 3 common toxicity criteria or 50% decrease in leukocyte and platelet counts) necessitating dose reduction", "setting": "MDS patients [1]; [8]", "result": 9, "unit": "patients"}, {"measurement": "patients with IPSS Low/Int-1 who experienced hematologic benefit", "setting": "MDS patients [1]; 6/7 patients with IPSS Low/Int-1", "result": 86, "unit": "%"}, {"measurement": "complete or partial cytogenetic remission (decrease in abnormal metaphases of more than 50%)", "setting": "MDS patients [1]; among five patients evaluable for cytogenetic response", "result": "three"}, {"measurement": "normalization of blast percentage", "setting": "MDS patients [1]; among responders", "result": 1, "unit": "patient"}, {"measurement": "patients who discontinued therapy prematurely (<2 weeks)", "setting": "MDS patients [1]; due to cholecystitis, autoimmune hemolytic anemia, or patient refusal, of 15 patients", "result": "three"}, {"measurement": "RBC transfusion-independence", "setting": "MDS patients [1]; [9]", "result": 4, "unit": "patients"}, {"measurement": "decrease in RBC transfusions of more than 50%", "setting": "MDS patients [1]; [9]", "result": 1, "unit": "patient"}, {"measurement": "increase in Hgb of more than 1.5 g", "setting": "MDS patients [1]; [9]", "result": 1, "unit": "patient"}, {"measurement": "Grade 1,2 drug-related myalgia", "setting": "MDS patients [1]; limited to the 25 mg dose", "result": 1, "unit": "patient"}, {"measurement": "Grade 1,2 drug-related pruritus or itchy scalp", "setting": "MDS patients [1]; limited to the 25 mg dose", "result": 6, "unit": "patients"}, {"measurement": "minor platelet response (increase of more than 30,000/μL)", "setting": "MDS patients [1]; number of responses", "result": "one"}, {"measurement": "evaluable patients who experienced hematologic benefit", "setting": "MDS patients [1]; of nine evaluable patients, oral 25 mg daily reduced to 10 mg, IWG criteria", "result": 66, "unit": "%"}, {"measurement": "overall clinical activity", "setting": "MDS patients [1]; patients with low/intermediate-1 risk MDS", "result": "remarkable erythropoietic and cytogenetic remitting activity"}, {"measurement": "MDS vs normal bone marrow progenitor formation", "setting": "[2]", "result": "selectively suppresses MDS vs normal bone marrow progenitor formation"}, {"measurement": "patients with 5q-syndrome who achieved a complete cytogenetic response and a major erythroid response", "setting": "MDS patients [3]; all enrolled patients with 5q-syndrome", "result": "five"}, {"measurement": "need for dose reduction by completion of eight weeks therapy", "setting": "MDS patients [3]; all patients with starting dose of 25 mg", "result": "required dose reduction"}, {"measurement": "patients who achieved an erythroid response (International MDS Working Group Criteria)", "setting": "MDS patients [3]; among 16 patients with at least 8 weeks of monitoring, start 25 mg or 10 mg daily", "result": "nine"}, {"measurement": "apoptotic index for myelodysplastic progenitors", "setting": "MDS patients [3]; association with therapy", "result": "increased apoptotic index"}, {"measurement": "normal hematopoietic progenitor cells", "setting": "MDS patients [3]; association with therapy", "result": "recovery of normal hematopoietic progenitor cells"}, {"measurement": "transfusion independence in previously transfusion-dependent patients", "setting": "MDS patients [3]; erythroid responses", "result": "seven"}, {"measurement": "minor platelet response", "setting": "MDS patients [3]; human, in vivo", "result": "One"}, {"measurement": "complete cytogenetic responses", "setting": "MDS patients [3]; in eight patients with abnormal karyotypes at baseline", "result": "five"}, {"measurement": "major erythroid response", "setting": "MDS patients [3]; of 16 patients", "result": "eight"}, {"measurement": "minor erythroid response", "setting": "MDS patients [3]; of 16 patients", "result": "one"}, {"measurement": ">50% decrease in RBC transfusion requirement", "setting": "MDS patients [3]; transfusion-dependent patient", "result": "one"}, {"measurement": ">2 g/dL rise in blood hemoglobin concentration", "setting": "MDS patients [3]; transfusion-independent anemia", "result": "one"}, {"measurement": "mitogenic response to VEGF", "setting": "AML cells", "result": "abrogates mitogenic response to VEGF in AML cells"}, {"measurement": "IC50 for inhibiting production of TNF-α", "setting": "TNF-α production [4]", "result": "~0.1036", "unit": "µg/mL"}, {"measurement": "IC50", "setting": "TNF-α production [4]; read-out: IC50 for inhibiting production of TNF-α", "result": "~480", "unit": "nM"}, {"measurement": "potency relative to thalidomide, in all studies", "setting": "[5]", "result": "at least 50 times"}, {"measurement": "IC50 for inhibiting production of TNF-α", "setting": "TNF-α production [6]", "result": "~0.0259", "unit": "µg/mL"}, {"measurement": "IC50", "setting": "TNF-α production [6]", "result": "~100", "unit": "nM"}]}, {"compound": "O=C1CCC(N2C(=O)c3ccccc3C2=O)C(=O)N1", "note": "(racemic) [Thalidomide, 2-(2,6-dioxo-3-piperidinyl)-1H-isoindole-1,3(2H)-dione, reference compound]", "values": [{"measurement": "IC50 for inhibiting production of TNF-α", "setting": "TNF-α production [6]", "result": "~50.2", "unit": "µg/mL"}, {"measurement": "IC50", "setting": "TNF-α production [6]", "result": "~194000", "unit": "nM"}]}, {"compound": "recombinant human EPO: recombinant human erythropoietin (EPO), a hematopoietic growth factor", "values": [{"measurement": "patients with sustained improvement in hemoglobin or decrease in transfusion requirement", "setting": "MDS patients [7]", "result": "less than 25%"}]}]}
